Results reported in PubChem BioAssay AID330 (DTP/NCI, 2004).
Several values for one entry are separate records, joined by “and”; a condition that tells them apart may be missing. Equal values may be shown once. Toxic doses and inconclusive results are not listed. How the source made its calls: active means survival T/C of 150% or more; inactive means T/C below 125% in these data.

System: P388 leukemia ip, CD2F1 mice, survival T/C
Experiment: NCI In Vivo Anticancer Drug Screen. Data for tumor model P388 Leukemia (intraperitoneal) in CD2F1 (CDF1) mice
Conditions: endpoint: median survival time, higher = longer survival
Summary of the method: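 Mice carrying the transplanted tumor received test compound or vehicle. Survival was recorded in each group, and the value is the treated-group measurement divided by that of the vehicle-treated control group.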

[1] = dose: 100.0 mg/kg/injection, schedule: Q01DX009 (ip), vehicle: saline with Tween-80
[2] = dose: 200.0 mg/kg/injection, schedule: Q01DX009 (ip), vehicle: saline with Tween-80
[3] = dose: 50.0 mg/kg/injection, schedule: Q01DX009 (ip), vehicle: Klucel (hydroxypropylcellulose) (HPC)
[4] = dose: 100.0 mg/kg/injection, schedule: Q01DX009 (ip), vehicle: Klucel (hydroxypropylcellulose) (HPC)
[5] = dose: 200.0 mg/kg/injection, schedule: Q01DX009 (ip), vehicle: Klucel (hydroxypropylcellulose) (HPC)
[6] = dose: 50.0 mg/kg/injection, schedule: Q01DX005 (ip), vehicle: saline with Tween-80
[7] = dose: 100.0 mg/kg/injection, schedule: Q01DX005 (ip), vehicle: saline with Tween-80
[8] = dose: 200.0 mg/kg/injection, schedule: Q01DX005 (ip), vehicle: saline with Tween-80
[9] = dose: 100.0 mg/kg/injection, schedule: Q04DX003 (ip), vehicle: saline with Tween-80
[10] = dose: 200.0 mg/kg/injection, schedule: Q04DX003 (ip), vehicle: saline with Tween-80
[11] = dose: 400.0 mg/kg/injection, schedule: Q04DX003 (ip), vehicle: saline with Tween-80
[12] = dose: 60.0 mg/kg/injection, schedule: Q01DX005 (ip), vehicle: saline with Tween-80
[13] = dose: 120.0 mg/kg/injection, schedule: Q01DX005 (ip), vehicle: saline with Tween-80
[14] = dose: 60.0 mg/kg/injection, schedule: Q01DX005 (ip), vehicle: Klucel (hydroxypropylcellulose) (HPC)
[15] = dose: 120.0 mg/kg/injection, schedule: Q01DX005 (ip), vehicle: Klucel (hydroxypropylcellulose) (HPC)
[16] = dose: 240.0 mg/kg/injection, schedule: Q01DX005 (ip), vehicle: Klucel (hydroxypropylcellulose) (HPC)
[17] = dose: 25.0 mg/kg/injection, schedule: Q01DX005 (ip), vehicle: saline
[18] = dose: 50.0 mg/kg/injection, schedule: Q01DX005 (ip), vehicle: Klucel (hydroxypropylcellulose) (HPC)
[19] = dose: 100.0 mg/kg/injection, schedule: Q01DX005 (ip), vehicle: Klucel (hydroxypropylcellulose) (HPC)
[20] = dose: 200.0 mg/kg/injection, schedule: Q01DX005 (ip), vehicle: Klucel (hydroxypropylcellulose) (HPC)
[21] = dose: 50.0 mg/kg/injection, schedule: Q01DX009 (ip), vehicle: saline with Tween-80

Measured: T/C

CCOC(=O)c1nc2ccccc2c(=O)[nH]1
inactive: [1] 102 % of control | [2] 108 % of control | dose: 400.0 mg/kg/injection, schedule: Q01DX009 (ip), vehicle: saline with Tween-80 100 % of control

Nc1nnc(Cc2ccccc2[N+](=O)[O-])c(=O)[nH]1
inactive: [3] 113 % of control | [4] 115 % of control | [5] 105 % of control

CC1CCC(C(C)C)C(NN)C1 (centres undefined)
inactive: [6] 104 % of control | [7] 100 % of control | [8] 108 % of control

Cc1c(COC(=O)NC(C)C)c(COC(=O)NC(C)C)c2n1CS(=O)C2 (centres undefined)
active: [8] 176 % of control
inactive: dose: 12.5 mg/kg/injection, schedule: Q01DX005 (ip), vehicle: saline with Tween-80 104 % of control | dose: 25.0 mg/kg/injection, schedule: Q01DX005 (ip), vehicle: saline with Tween-80 111 % of control | [6] 118 % of control

COc1ccc2nccc(CC(O)C(Cl)(Cl)Cl)c2c1 (centres undefined)
inactive: [6] 105 % of control | [7] 93 % of control | [8] 101 % of control

COc1cc2c(cc1O)C(CSC)Cc1cc(OC)c(OC)cc1N(C)CCC2 (centres undefined)
inactive: [9] 93 % of control | [10] 87 % of control | [11] 100 % of control

COC(=O)C1=C/C=C\CN(C(c2ccccc2)c2ccccc2)/C=C\1C(=O)OC
inactive: dose: 50.0 mg/kg/injection, schedule: Q01DX009 (ip), vehicle: suspension in saline 100 % of control | dose: 100.0 mg/kg/injection, schedule: Q01DX001 (ip), vehicle: saline 100 % of control | dose: 100.0 mg/kg/injection, schedule: Q01DX009 (ip), vehicle: suspension in saline 89 % of control | dose: 200.0 mg/kg/injection, schedule: Q01DX001 (ip), vehicle: saline 100 % of control | dose: 200.0 mg/kg/injection, schedule: Q01DX009 (ip), vehicle: suspension in saline 95 % of control | dose: 400.0 mg/kg/injection, schedule: Q01DX001 (ip), vehicle: saline 97 % of control | dose: 400.0 mg/kg/injection, schedule: Q01DX009 (ip), vehicle: suspension in saline 104 % of control

C=C1OC(=O)C(N)=C1C(C)=O
inactive: [12] 99 % of control | [13] 97 % of control | dose: 240.0 mg/kg/injection, schedule: Q01DX005 (ip), vehicle: saline with Tween-80 95 % of control

CCOC(OCC)c1ccc(C)cc1
inactive: [9] 103 % of control | [10] 108 % of control | [11] 97 % of control

N#Cc1nnc2cc(-c3ccccc3)nn2c1C1CC1
inactive: [14] 96 % of control | [15] 96 % of control | [16] 100 % of control

COC(=O)C1(c2ccccc2)N=C1N(C)C (centres undefined)
inactive: dose: 100.0 mg/kg/injection, schedule: Q04DX002 (ip), vehicle: saline with Tween-80 94 % of control | dose: 200.0 mg/kg/injection, schedule: Q04DX002 (ip), vehicle: saline with Tween-80 94 % of control | dose: 400.0 mg/kg/injection, schedule: Q04DX002 (ip), vehicle: saline with Tween-80 102 % of control

CNC(=O)OCc1c(COC(=O)NC)c(-c2ccco2)n2c1CCC2
inactive: dose: 3.75 mg/kg/injection, schedule: Q01DX005 (ip), vehicle: saline 100 % of control | dose: 7.5 mg/kg/injection, schedule: Q01DX005 (ip), vehicle: saline 101 % of control | dose: 15.0 mg/kg/injection, schedule: Q01DX005 (ip), vehicle: saline 120 % of control

CN(C)CCOC(=O)Nc1ccccc1C(F)(F)F
inactive: [12] 99 % of control | [13] 95 % of control

C=C(CCCCC)C(=O)/C=C/c1ccccc1
inactive: [3] 103 % of control | [4] 107 % of control | [5] 118 % of control

Cc1cc(C2CCCCC2)n(O)c(=O)c1
inactive: [17] 100 % of control | dose: 50.0 mg/kg/injection, schedule: Q01DX005 (ip), vehicle: saline 99 % of control | dose: 100.0 mg/kg/injection, schedule: Q01DX005 (ip), vehicle: saline 106 % of control

COc1cc2c(cc1C(C)c1ccccc1)OCO2 (centres undefined)
inactive: [6] 96 % of control | [7] 96 % of control | [8] 111 % of control

O=C(O)C1CSC2(CCCCC2)N1 (centres undefined)
inactive: dose: 50.0 mg/kg/injection, schedule: Q04DX003 (ip), vehicle: saline 104 % of control | dose: 100.0 mg/kg/injection, schedule: Q04DX003 (ip), vehicle: saline 95 % of control | dose: 200.0 mg/kg/injection, schedule: Q04DX003 (ip), vehicle: saline 99 % of control | dose: 400.0 mg/kg/injection, schedule: Q04DX003 (ip), vehicle: saline 96 % of control

Oc1cc2c(cc1C(c1ccc(F)cc1)n1ccnc1)OCO2 (centres undefined)
inactive: [14] 96 % of control | [15] 94 % of control | [16] 91 % of control

Cc1ccc(NC(=O)CNCC(C)C)cc1Cl
inactive: [18] 100 % of control | [19] 109 % of control | [20] 100 % of control

N#CCc1[nH]nc2ncnc(N)c12
inactive: dose: 6.25 mg/kg/injection, schedule: Q01DX009 (ip), vehicle: other 102 % of control | dose: 12.5 mg/kg/injection, schedule: Q01DX009 (ip), vehicle: other 103 % of control | dose: 25.0 mg/kg/injection, schedule: Q01DX009 (ip), vehicle: other 97 % of control | dose: 50.0 mg/kg/injection, schedule: Q01DX009 (ip), vehicle: other 97 % of control | dose: 100.0 mg/kg/injection, schedule: Q01DX009 (ip), vehicle: other 105 % of control

O=C(Nc1ccc(Br)cc1)Oc1ccc(Cl)cc1C(=O)c1ccccc1
inactive: [14] 105 % of control | [15] 105 % of control | [16] 108 % of control

CC(=O)Nc1nc(N)nc(NC(C)=O)c1N=O
inactive: [21] 110 % of control | [1] 119 % of control | [2] 117 % of control

CC1=CC(=Nc2cc(Cl)c(O)c(Cl)c2)C=CC1=O
inactive: dose: 6.25 mg/kg/injection, schedule: Q01DX005 (ip), vehicle: saline 96 % of control | dose: 12.5 mg/kg/injection, schedule: Q01DX005 (ip), vehicle: saline 96 % of control | [17] 89 % of control

CCOC(=O)C1Cc2c([nH]c(=O)[nH]c2=O)OC1(C)c1ccccc1 (centres undefined)
inactive: [18] 103 % of control | [19] 98 % of control | [20] 97 % of control

CCN1C(=O)CCN(S(=O)(=O)c2ccc(-n3nc(C)cc3C)cc2)C1=S
inactive: [6] 99 % of control | [7] 95 % of control | [8] 103 % of control

Nc1cc(I)c2cccnc2c1O
inactive: dose: 6.25 mg/kg/injection, schedule: Q01DX009 (ip), vehicle: saline 119 % of control | dose: 12.5 mg/kg/injection, schedule: Q01DX009 (ip), vehicle: saline 115 % of control | dose: 16.0 mg/kg/injection, schedule: Q01DX009 (ip), vehicle: saline 98 % of control | dose: 25.0 mg/kg/injection, schedule: Q01DX009 (ip), vehicle: saline 92 % of control and 98 % of control | dose: 35.0 mg/kg/injection, schedule: Q01DX009 (ip), vehicle: saline 107 % of control | dose: 50.0 mg/kg/injection, schedule: Q01DX009 (ip), vehicle: saline 119 % of control

NCc1c(Cl)c(Cl)c(Cl)c(CN)c1Cl
inactive: dose: 50.0 mg/kg/injection, schedule: Q04DX003 (ip), vehicle: saline with Tween-80 100 % of control | [9] 100 % of control | [10] 105 % of control

O=[N+]([O-])c1cc([N+](=O)[O-])c2ccccc2c1NS(=O)(=O)c1ccc(Cl)c(Cl)c1Cl
inactive: [21] 103 % of control and 122 % of control | [1] 112 % of control | [2] 106 % of control
